Columns and labels:
Assay type in all cases: in vivo
barnyard grass (Eo) [1] = test: Test Example 1: herbicidal effects by flooded paddy field treatment; conditions: dose 100 gai/10a, examined on 21st day after treatment, index 0-5 per Table 44;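 further: 0-5 growth inhibition grade; 5 = over 90%; 4 = 70-90%; 3 = 50-70%; 2 = 30-50%; 1 = 10-30%; 0 = under 10%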
Method in brief: (§1)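 Herbicidal effect scored 21 days post-treatment after greenhouse cultivation. Treatment was applied dropwise to the water surface, one day after sowing, as a diluted wettable powder (100 g a.i./10 ares). Pots held puddled paddy soil under 3 cm water.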

monochoria (Mo) [2] = test: as above; conditions: dose 100 gai/10a, examined on 21st day after treatment, index 0-5 per Table 44
Method in brief: as §1

barnyard grass (Ec) [3] = test: Test Example 2: herbicidal effects by upland soil treatment; design: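 0-5 growth inhibition grade; 5 = over 90%; 4 = 70-90%; 3 = 50-70%; 2 = 30-50%; 1 = 10-30%; 0 = under 10%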; conditions: dose 100 g active ingredient per 10 ares, examined on the 21st day after treatment, standards of Table 44
Method in brief: (§2)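 Pre-emergence test: barnyard grass and green foxtail sown in upland soil, then soil surface sprayed with wettable-powder formulation at 100 g active ingredient per 10 ares (100 l per 10 ares). Grown in greenhouse; herbicidal effect scored on a rating scale 21 days after treatment.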

green foxtail (Se) = test: as above; conditions: dose 100 g active ingredient per 10 ares, examined on the 21st day after treatment, standards of Table 44;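 further: 0-5 growth inhibition grade; 5 = over 90%; 4 = 70-90%; 3 = 50-70%; 2 = 30-50%; 1 = 10-30%; 0 = under 10%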
Method in brief: as §2

barnyard grass (Eo) [4] = test: Test Example 4: selectivity for a crop plant by flooded paddy field treatment; design: scale not given here; conditions: for Eo (herbicidal effects, index): dose 25 g active ingredient per 10 ares, examined on the 21st day after treatment
Method in brief: (§3)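 Flooded-paddy treatment: the wettable powder formulation, diluted in water, was applied dropwise to 3 cm floodwater at 25 g a.i./10 ares one day after sowing barnyard grass and monochoria and transplanting rice at the second leaf stage. Greenhouse grown; herbicidal effect rated against set standards on day 21.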

monochoria (Mo) [5] = test: as above; design: scale not given here; conditions: for Mo (herbicidal effects, index): dose 25 g active ingredient per 10 ares, examined on the 21st day after treatment
Method in brief: as §3

rice (Or) = test: as above; design: scale not given here; conditions: rice transplanted at second leaf stage; for Or (effect on crop plant rice, index): dose 25 g active ingredient per 10 ares, examined on the 21st day after treatment
Method in brief: as §3

barnyard grass (Ec) [6] = test: Test Example 5: selectivity for a crop plant by soil treatment in upland field; design: scale not given here; conditions: dose 25 gai/10a, 21st day after treatment, index per Table 44
Method: (§4) In a 80 cm^2 plastic pot, upland soil was filled, and seeds of barnyard grass (Ec), green foxtail (Se), soybean (G1), wheat (Tr) and corn (Ze) were sown and covered with soil. A wettable powder prepared in accordance with Formulation Example 1 was diluted with water and uniformly applied to the soil surface by a small size spray at a rate of 100 l per 10 ares so that the dose of the active ingredient would be 25 g per 10 ares. Thereafter, cultivation was carried out in a green house, and on the 21st day after the treatment, the herbicidal effects were examined in accordance with the standards of Table 44.

corn (Ze) = test: as above; design: scale not given here; conditions: dose 25 gai/10a, 21st day after treatment, index per Table 44
Method: as §4

soybean (G1) = test: as above; design: scale not given here; conditions: dose 25 gai/10a, 21st day after treatment, index per Table 44
Method: as §4

wheat (Tr) = test: as above; design: scale not given here; conditions: dose 25 gai/10a, 21st day after treatment, index per Table 44
Method: as §4

barnyard grass (Ec) [7] = test: Test Example 3: herbicidal effects by foliage treatment in upland field; design: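 0-5 growth inhibition grade; 5 = over 90%; 4 = 70-90%; 3 = 50-70%; 2 = 30-50%; 1 = 10-30%; 0 = under 10%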; conditions: dose 100 g active ingredient per 10 ares, examined on the 14th day after treatment
Method in brief: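 Barnyard grass and green foxtail were grown in upland soil for 2 weeks in a greenhouse. A water-diluted wettable powder was sprayed over the foliage at 100 l per 10 ares, giving 100 g active ingredient per 10 ares. Herbicidal effect was scored on day 14 after treatment.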
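Wherever Herbicidal effect index, Mo is given: 0-5 growth inhibition grade; 5 = over 90%; 4 = 70-90%; 3 = 50-70%; 2 = 30-50%; 1 = 10-30%; 0 = under 10%.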

| SMILES | Or (effect on crop plant rice, index) (rice (Or)) | Herbicidal effect index, Eo (barnyard grass (Eo) [1]) | Herbicidal effect index, Mo (monochoria (Mo) [2]) | herbicidal effects, Ec (barnyard grass) (barnyard grass (Ec) [3]) | herbicidal effects, Se (green foxtail) (green foxtail (Se)) | Eo (herbicidal effects, index) (barnyard grass (Eo) [4]) | Mo (herbicidal effects, index) (monochoria (Mo) [5]) | Ec (herbicidal effect index) (barnyard grass (Ec) [6]) | Ze (herbicidal effect index on crop) (corn (Ze)) | Gl (herbicidal effect index on crop) (soybean (G1)) | Tr (herbicidal effect index on crop) (wheat (Tr)) | Ec (herbicidal effects, index) (barnyard grass (Ec) [7]) | Eo (herbicidal effect index) (barnyard grass (Eo) [4]; barnyard grass, dose 25 gai/10a, 21st day after treatment, index per Table 44) | Mo (herbicidal effect index) (monochoria (Mo) [5]; monochoria, dose 25 gai/10a, 21st day after treatment, index per Table 44) | Or (herbicidal effect index on crop) (rice (Or); dose 25 gai/10a, 21st day after treatment, index per Table 44) |
| --- | --- | --- | --- | --- | --- | --- | --- | --- | --- | --- | --- | --- | --- | --- | --- |
| CCC(C)C(c1cncnc1C(F)(F)F)N(C)C(=O)Cc1ccc(F)cc1 (mixture of isomers) [Compound 1-58] |  | 5 | 5 | 5 | 5 |  |  | 5 | 0 | 0 | 3 | 4 |  |  |  |
| CC(C)C(c1cncnc1C(F)(F)F)N(C)C(=O)Cc1ccc(OC(F)(F)F)cc1 (racemic) [Compound 1-95] |  | 5 | 5 | 5 | 5 |  |  | 5 | 0 | 1 | 0 | 5 |  |  |  |
| CC(C)C(c1cncnc1C(F)(F)F)N(C)C(=O)Cc1ccccc1F (racemic) [Compound 1-100] |  | 5 | 5 | 5 | 5 |  |  | 5 | 2 | 0 | 2 | 5 |  |  |  |
| CCC(c1cncnc1C(F)(F)F)N(C)C(=O)Cc1ccc(F)cc1 (racemic) [Compound 1-33] | 1 | 5 | 5 | 5 | 5 | 5 | 5 | 4 | 1 | 0 | 2 |  |  |  |  |
| CC(C)C(c1cncnc1C(F)(F)F)N(C)C(=O)Cc1ccc(Cl)c(Cl)c1 (racemic) [Compound 1-45] | 0 | 5 | 5 | 5 | 5 | 5 | 5 | 4 | 0 | 0 | 2 |  |  |  |  |
| CCCN(C(=O)Cc1ccc(Cl)cc1)C(c1cncnc1C(F)(F)F)C(C)C (racemic) [Compound 1-49] | 0 | 5 | 5 | 5 | 4 | 5 | 5 | 5 | 3 | 1 | 0 |  |  |  |  |
| CCCN(C(=O)Cc1ccc(C#N)cc1)C(c1cncnc1C(F)(F)F)C(C)C (racemic) [Compound 1-99] |  | 5 | 5 | 5 | 5 |  |  | 4 | 0 | 0 | 3 |  | 5 | 5 | 1 |

Continued, in another order:

| Or (effect on crop plant rice, index) (rice (Or)) | SMILES | Herbicidal effect index, Eo (barnyard grass (Eo) [1]) | Herbicidal effect index, Mo (monochoria (Mo) [2]) | herbicidal effects, Ec (barnyard grass) (barnyard grass (Ec) [3]) | herbicidal effects, Se (green foxtail) (green foxtail (Se)) | Eo (herbicidal effects, index) (barnyard grass (Eo) [4]) | Mo (herbicidal effects, index) (monochoria (Mo) [5]) | Ec (herbicidal effect index) (barnyard grass (Ec) [6]) | Ze (herbicidal effect index on crop) (corn (Ze)) | Gl (herbicidal effect index on crop) (soybean (G1)) | Tr (herbicidal effect index on crop) (wheat (Tr)) | Ec (herbicidal effects, index) (barnyard grass (Ec) [7]) | Eo (herbicidal effect index) (barnyard grass (Eo) [4]; barnyard grass, dose 25 gai/10a, 21st day after treatment, index per Table 44) | Mo (herbicidal effect index) (monochoria (Mo) [5]; monochoria, dose 25 gai/10a, 21st day after treatment, index per Table 44) | Or (herbicidal effect index on crop) (rice (Or); dose 25 gai/10a, 21st day after treatment, index per Table 44) |
| --- | --- | --- | --- | --- | --- | --- | --- | --- | --- | --- | --- | --- | --- | --- | --- |
| 0 | CC(C)C(c1cncnc1C(F)(F)F)N(C)C(=O)C=Cc1ccccc1 (racemic) [Compound 1-85] | 5 | 5 | 5 | 5 | 5 | 5 | 4 | 0 | 0 | 1 |  |  |  |  |
| 0 | CC(C)Oc1ccc(CC(=O)N(C)C(c2cncnc2C(F)(F)F)C(C)C)cc1 (racemic) [Compound 1-97] | 5 | 5 | 5 | 5 | 5 | 5 | 4 | 0 | 3 | 1 |  |  |  |  |
| 1 | Cc1cccc(CC(=O)N(C)C(c2cncnc2C(F)(F)F)C(C)C)c1 (racemic) [Compound 1-51] | 5 | 5 | 5 | 5 | 5 | 5 | 5 | 0 | 0 | 1 |  |  |  |  |
| 0 | COCc1ccc(CC(=O)N(C)C(c2cncnc2C(F)(F)F)C(C)C)cc1 (racemic) [Compound 1-76] | 5 | 5 | 5 | 5 | 5 | 5 | 4 | 2 | 0 | 2 |  |  |  |  |

— patent publication US6806230B1, “Pyrimidine derivatives and herbicides containing them” (Kumiai Chemical Industry Co., Ltd., priority 1999, dated 2004)
